Data set [1] deals with lectin pathway (MBL) in human serum. In words: Inhibition of activity of lectin pathway (MBL) in human serum (WIESLAB Complement System MBL Pathway kit). Format: biochemical. The settings on record: 1% human serum. How it is done: The inhibition of the activity of the lectin pathway (MBL) in human serum by compounds was detected using a WIESLAB® Complement System MBL Pathway kit (SVAR, COMPLMP320). Test compounds were each serially diluted in a buffer (Diluent MP), and 1% human serum was incubated with the diluted compound solution for 15 min at room temperature. 100 μL of the mixture was added to a microplate and incubated at 37° C. for 60 min. The liquid in the wells was discarded, and the microplate was washed three times with a washing solution. A Conjugate antibody solution was added at 100 μL/well, and the resulting mixture was incubated for 30 min at 25° C. The liquid in the wells was discarded, and the microplate was washed three times with a washing solution; a substrate solution was added at 100 μL/well, and the resulting mixture was incubated for 30 min at 25° C.; the terminator was added at 50 μL/well, and the absorbance at 405 nm was detected within 30 min by using a microplate reader.

The target in the next data set is human α-thrombin (Homo sapiens (Human), UniProt P00734). In words: Inhibition of thrombin, fluorescent peptide substrate Boc-VPR-AMC. Format: biochemical. The protocol:
For thrombin assay, a fluorescent peptide substrate (Boc-VPR-AMC (R&D Systems)) was used and reacted in a buffer containing 20 mM Hepes (pH 7.4), 140 mM NaCl, and 0.1% Tween 20 at room temperature. Assay parameters were adjusted to make the assay linearly related to time, enzyme, and substrate concentration.
The assay method for thrombin is as follows. Test compounds were each serially diluted with a buffer, and then 10 μL of compound solution was transferred to an assay plate. A buffer was added to the assay plate at 10 μL/well, and then a thrombin (human α-thrombin (BioPharm Lab.)) solution was added at 15 μL/well. A Boc-VPR-AMC substrate solution was added at 15 μL/well, and the resulting mixture was incubated for 60 min at 25° C. A terminating solution (0.1 M acetic acid) was added at 15 μL/well, and detection was performed within 30 min by using a SpectraMax i3x microplate reader.

Data set [2] in a line: In vivo pharmacokinetic study in SD rats. The settings on record: clear. How it is done:
After adaptive feeding, the SPF SD rats were each subjected to a single administration of 1 mg/kg or 3 mg/kg of the compound of the present disclosure intragastrically or by tail vein bolus injection. Plasma was collected at specific time points after administration, and the concentration of the compound in plasma was detected by LC-MS/MS (AB Sciex Qtrap 4500).

[3] abbreviates: Sprague-Dawley (SD), rat, plasma, 1 mg/kg, IV, not fasting.
[4] abbreviates: Sprague-Dawley (SD), rat, plasma, 1 mg/kg, IV, not fasting, read-out: Cmax.
Where [5] appears, read: Sprague-Dawley (SD), rat, plasma, 1 mg/kg, PO, fasting.
The mark [6] stands for this setting: Sprague-Dawley (SD), rat, plasma, 1 mg/kg, PO, fasting, read-out: Cmax.

Experimental findings from US20250171414A1, “COMPOUND SERVING AS MASP-2 INHIBITOR, PHARMACEUTICAL COMPOSITION, PREPARATION METHOD THEREFOR, AND USE THEREOF” (WUHAN CREATERNA SCIENCE AND TECHNOLOGY CO., LTD., priority 2022, published 2025) are described below.

SMILES strings stand for the structures. Read-outs that look alike come from different tables or passages of the source.

With `C[C@H](NC(=O)[C@H]1C[C@H](Cc2ccc(-c3ccccc3)cc2)CN1)C(=O)NC1CCc2nc(N)ccc21` (stereo partly drawn) [Compound L002, (2R,4S)-4-([1,1′-biphenyl]-4-ylmethyl)-N-((2S)-1-((2-amino-6,7-dihydro-5H-cyclopenta[b]pyridin-5-yl)amino)-1-oxopropan-2-yl) pyrrolidine-2-carboxamide], the IC50 – broadly, the concentration that gives 50% inhibition – in data set [1] is 2.48 nM; at human α-thrombin, above 50000 nM.
In data set [1], `C[C@H](NC(=O)[C@H]1C[C@H](Cc2ccc(F)cc2)CN1)C(=O)N[C@@H]1CCc2nc(N)ccc21` [Compound L001-IS-01, (2R,4S)—N—((S)-1-(((R)-2-amino-6,7-dihydro-5H-cyclopenta[b]pyridin-5-yl)amino)-1-oxopropan-2-yl)-4-(4-fluorobenzyl) pyrrolidine-2-carboxamide] yielded an IC50 of 0.52 nM. Further, on human α-thrombin, half-maximal inhibition (IC50) required 27400 nM. Moreover, in data set [2] (1 mg/kg, IV, not fasting), the AUClast worked out at 299766 ± 11465 ng·h/mL; the Cmax – broadly, the maximum level reached in the sampled fluid or tissue – turned out to be 23267 ± 1538 ng/mL; the T1/2 was found to be 42.4 ± 3.40 h. Besides, in data set [2] (3 mg/kg, PO, fasting), the AUClast stood at 188265 ± 20044 ng·h/mL, the Cmax stood at 6070 ± 914 ng/mL and the T1/2 stood at 43.9 ± 8.44 h.
Consider `Nc1ccc2c(n1)CCC2NC(=O)[C@@H]1CCN1C(=O)[C@H]1C[C@H](Cc2ccc(-c3ccccc3)cc2)CN1` (stereo partly drawn) [Compound L027, (2S)-1-(2R,4S)-4-([1,1′-biphenyl]-4-(4-methyl)pyrrolidine-2-carbonyl)-N-(2-amino-6,7-dihydro-5H-cyclopenta[b]pyridin-5-yl) azetidine-2-carboxamide], for which the IC50 was 1.43 nM in data set [1] and 11900 nM on human α-thrombin.
`C[C@H](NC(=O)[C@H]1C[C@H](Cc2cccc(Cl)c2)CN1)C(=O)NC1CCc2nc(N)ccc21` (stereo partly drawn) [Compound L014, (2R,4S)—N-((2S)-1-((2-amino-6,7-dihydro-5H-cyclopenta[b]pyridin-5-yl)amino)-1-oxopropan-2-yl)-4-(3-chlorobenzyl) pyrrolidine-2-carboxamide] displayed an IC50 in data set [1] of 2.71 nM. In data set [2] (1 mg/kg, IV, not fasting), this compound came in with an AUClast of 89916 ± 4999 ng·h/mL, a Cmax of 24633 ± 167 ng/mL and a T1/2 of 7.81 ± 1.16 h. Further, in data set [2] (1 mg/kg, PO, fasting), the AUClast worked out at 13180 ± 3323 ng·h/mL, the Cmax turned out to be 1967 ± 568 ng/mL and the T1/2 was found to be 12.5 h.
As to `Nc1ccc2c(n1)CCC2NC(=O)[C@@H]1CCN1C(=O)[C@H]1C[C@H](Cc2ccc(F)cc2)CN1` (stereo partly drawn) [Compound L030, (2S)—N-(2-amino-6,7-dihydro-5H-cyclopenta[b]pyridin-5-yl)-1-((2R,4S)-4-(4-fluorobenzyl)pyrrolidine-2-carbonyl) azetidine-2-carboxamide], the IC50 was 1.85 nM in data set [1] and 10300 nM at human α-thrombin.
Consider `C[C@H](NC(=O)[C@H]1C[C@H](Cc2ccc(F)c(Cl)c2)CN1)C(=O)NC1CCc2nc(N)ccc21` (stereo partly drawn) [Compound L012, (2R,4S)—N-((2S)-1-((2-amino-6,7-dihydro-5H-cyclopenta[b]pyridin-5-yl)amino)-1-oxopropan-2-yl)-4-(3-chloro-4-fluorobenzyl) pyrrolidine-2-carboxamide], for which, in data set [1], the IC50 came to 4.06 nM. In data set [2] (1 mg/kg, IV, not fasting), this compound yielded an AUClast of 97054 ± 1914 ng·h/mL, a Cmax of 26933 ± 1167 ng/mL and a T1/2 of 12.0 ± 3.72 h. In data set [2] (1 mg/kg, PO, fasting), this compound yielded an AUClast of 11618 ± 919 ng·h/mL, a Cmax of 1777 ± 98.2 ng/mL and a T1/2 of 12.7 h.
In data set [1], `C[C@H](NC(=O)[C@@H]1C=C(c2ccc(Cl)cc2)CCN1)C(=O)N[C@@H]1CCc2nc(N)ccc21` (single isomer, unassigned) [Compound L066-IS-02] registered an IC50 of 9.52 nM. For the same compound, the AUC(0-t) (usually the area under the concentration-time curve up to a stated or last time point) in data set [2] (setting [3]) is 17100 ± 4640 ng·h/mL; in data set [2] (setting [5]) it was 3240 ± 233 ng·h/mL. In addition, the half-life (as a rule, how long it takes for the measured level to halve) in data set [2] (setting [3]) is 4.51 ± 1.29 h; in data set [2] (setting [5]), 4.93 ± 0.51 h. Also, the Cmax in data set [2] (setting [4]) came out at 15900 ± 1070 ng/mL; in data set [2] (setting [6]), 1140 ± 164 ng/mL.
As for `Nc1ccc2c(n1)CCC2NC(=O)[C@@H]1CCCN1C(=O)[C@H]1C[C@H](Cc2ccc(-c3ccccc3)cc2)CN1` (stereo partly drawn) [Compound L028, (2S)-1-(2R,4S)-4-([1,1′-biphenyl]-4-(4-ylmethyl)pyrrolidine-2-carbonyl)-N-(2-amino-6,7-dihydro-5H-cyclopenta[b]pyridin-5-yl) pyrrolidine-2-carboxamide], the IC50 amounted to 4.09 nM in data set [1] and 16600 nM at human α-thrombin.
For `C[C@H](NC(=O)[C@@H]1C=C(c2ccc(F)cc2F)CCN1)C(=O)N[C@@H]1CCc2nc(N)ccc21` (single isomer, unassigned) [Compound L076-IS-02], the IC50 in data set [1] came to 11.6 nM. Also, the AUC(0-t) stood at 25900 ± 556 ng·h/mL in data set [2] (setting [3]) and 6970 ± 1210 ng·h/mL in data set [2] (setting [5]). Also, the figures for the half-life in data set [2] (setting [3]) and in data set [2] (setting [5]) were 5.88 ± 0.27 h and 4.29 ± 0.28 h, respectively. Also, the Cmax in data set [2] (setting [4]) is 22500 ± 1030 ng/mL; in data set [2] (setting [6]), 1350 ± 423 ng/mL.
In turn, `C[C@H](NC(=O)[C@H]1C[C@H](Cc2ccc(F)cc2)CN1)C(=O)NC1CCc2nc(N)ccc21` (stereo partly drawn) [Compound L001, (2R,4S)—N-((2S)-1-((2-amino-6,7-dihydro-5H-cyclopenta[b]pyridin-5-yl)amino)-1-oxopropan-2-yl)-4-(4-fluorobenzyl) pyrrolidine-2-carboxamide] yielded an IC50 in data set [1] of 2.67 nM. On human α-thrombin, this compound came in with an IC50 above 50000 nM. In data set [2] (1 mg/kg, IV, not fasting), this compound came in with an AUClast of 54837 ± 1386 ng·h/mL, a Cmax of 7297 ± 154 ng/mL and a T1/2 of 31.1 ± 1.27 h. Moreover, in data set [2] (1 mg/kg, PO, fasting), the AUClast worked out at 9822 ± 108 ng·h/mL, the Cmax turned out to be 1483 ± 41.0 ng/mL and the T1/2 came to 10.1 h.
Regarding `C[C@H](NC(=O)[C@H]1C=C(c2cccc(F)c2)CCN1)C(=O)N[C@@H]1CCc2nc(N)ccc21` [Compound L083, (R)—N—((S)-1-(((R)-2-amino-6,7-dihydro-5H-cyclopenta[b]pyridin-5-yl)amino)-1-oxopropan-2-yl)-4-(3-fluorophenyl)-1,2,5,6-tetrahydropyridine-2-carboxamide], the IC50 in data set [1] was 10.6 nM. Besides, the AUC(0-t) in data set [2] (setting [3]) was found to be 16400 ± 936 ng·h/mL; in data set [2] (setting [5]), 3360 ± 778 ng·h/mL. Further, the half-life was 2.71 ± 0.23 h in data set [2] (setting [3]) and 2.97 ± 0.07 h in data set [2] (setting [5]). The Cmax in data set [2] (setting [4]) was 18000 ± 850 ng/mL; in data set [2] (setting [6]), 1090 ± 295 ng/mL.
